Source: paper PMC10885651 (BMC Chemistry, 2024)

Columns and labels:
[1] = test system: mushroom tyrosinase (EC 1.14.18.1); assay: Mushroom tyrosinase inhibition assay, L-Dopa as substrate (diphenolase activity, dopachrome at 490 nm); assay type: biochemical; conditions: for % Inhibition at 80 µM: 80 µM compound; for % Inhibition at 80 µM / % Inhibition at 30 µM: mean of three independent experiments; for % Inhibition at 30 µM: 30 µM compound
Description: We conducted the assay of mushroom tyrosinase (EC 1.14.18.1) utilizing L-Dopa as the substrate, as previously described, with minor adaptations. We employed a spectrophotometric technique to assess the enzyme's diphenolase activity, observing dopachrome formation at 490 nm. […] In a 96-well microplate, 10 µl of the test samples were combined with 140 µl of 50 mM phosphate buffer (pH = 6.8). Subsequently, 20 µl of tyrosinase (273 U mL^−1) was introduced. Following a pre-incubation period of 20 min at 28 °C, 20 µl of L-Dopa solution (resulting in a final concentration of 0.7 mM) was added to the mixture. Following a 10-min incubation, the absorbance of the samples was measured. The inhibitory activity of the tested compounds was stated as IC50. The ratio percentage of inhibition was calculated according to the equation below: Inhibition%=100Abscontrol-Abscompound/Abscontrol

[2] = test system: mushroom tyrosinase; assay: Kinetic study of tyrosinase inhibition (Lineweaver-Burk plots); assay type: biochemical
Excerpt: Mechanism and type of inhibition were elucidated through kinetic investigations. […] Lineweaver–Burk plots, depicting 1/V against 1/[S], were constructed to illustrate the inhibition of tyrosinase by 6b across varying concentrations of both 6b and L-Dopa, the substrate. In this context, Km represents the Michaelis–Menten constant, while Vmax signifies the maximum reaction velocity.
Based on these findings, it can be inferred that the inhibitory effect of compound 6b is competitive.
The inhibitor concentrations employed ranged from 2 to 20 μM, while the substrate (L-Dopa) concentrations in the rane of 0.1 mM to 1.5 mM through all kinetic experiments. The pre-incubation and measurement durations followed the protocol outlined in the mushroom tyrosinase inhibition assay. The maximum initial velocity was ascertained from the initial linear segment of absorbance within a 10-min window following the introduction of L-Dopa, with measurements taken at 1-min intervals. Utilizing the Lineweaver–Burk plot technique, we calculated the Michaelis constant (Km) and the tyrosinase activity's maximal velocity (Vmax). This plot involved various L-Dopa concentrations as the substrate. For assessing the enzyme's inhibition type, we employed Lineweaver–Burk plots featuring the reciprocal of velocities (1/V) plotted against the reciprocal of substrate concentrations (1/[S] mM^−1).

[3] = biological target: tyrosinase; conditions: Fig. 1; cited from earlier work

| Molecule | % Inhibition at 80 µM [1] | melting point | also measured |
| --- | --- | --- | --- |
| COc1cc(C2C(C#N)=C(N)Oc3c2oc(CO)cc3=O)ccc1OCc1ccc(F)cc1 (centres unmarked) [6l, 2-Amino-4-(4-((4-fluorobenzyl)oxy)-3-methoxyphenyl)-6-(hydroxymethyl)-8-oxo-4,8-dihydropyrano[3,2-b]pyran-3-carbonitrile] | 49.09 ± 4.91% |  |  |
| N#CC1=C(N)Oc2c(oc(CO)cc2=O)C1c1ccc(OCc2ccc(Br)cc2)cc1 (centres unmarked) [6d, 2-Amino-4-(4-((4-bromobenzyl)oxy)phenyl)-6-(hydroxymethyl)-8-oxo-4,8 dihydropyrano[3,2-b]pyran-3-carbonitrile] | 66.36 ± 3.64% | 214 to 216 °C | IC50 [1]: 34 ± 2.53 µM; % Inhibition at 30 µM [1]: 48.86 ± 3.53% |
| N#CC1=C(N)Oc2c(oc(CO)cc2=O)C1c1ccc(OCc2ccc(F)cc2)cc1 (centres unmarked) [6b, 2-Amino-4-(4-((4-fluorobenzyl)oxy)phenyl)-6-(hydroxymethyl)-8-oxo-4,8-dihydropyrano[3,2-b]pyran-3-carbonitrile] | 89.27 ± 2.59% | 227 to 230 °C | IC50 [1]: 7.69 ± 1.99 µM; % Inhibition at 30 µM [1]: 79.81 ± 6.18%; type of inhibition ([2]; Lineweaver-Burk plot, Vmax constant, Km rising): competitive; Ki ([2]; secondary plot of Km vs concentration of inhibitor, L-Dopa 0.1-1.5 mM, read-out: inhibition constant Ki): 7.57 µM |
| N#CC1=C(N)Oc2c(oc(CO)cc2=O)C1c1cccc(OCc2ccc(Br)cc2)c1 (centres unmarked) [6i, 2-Amino-4-(3-((4-bromobenzyl)oxy)phenyl)-6-(hydroxymethyl)-8-oxo-4,8-dihydropyrano[3,2-b]pyran-3-carbonitrile] | 67.72 ± 7.27% | 236 to 238 °C | IC50 [1]: 15.3 ± 3.17 µM; % Inhibition at 30 µM [1]: 59.54 ± 5.44% |
| CCOC(=O)C1=C(N)Oc2c(ccc3ccccc23)C1c1cccc(Cl)c1 (centres unmarked) [1e] |  |  | IC50 [3]: 34.1 µM |
| Nn1c(SCc2cc(=O)c(O)co2)nnc1-c1ccc(Cl)cc1 [1a] |  |  | IC50 [3]: 4.5 µM |
| O=c1cc(Cc2cn(Cc3cccc4ccccc34)nn2)occ1O [1b] |  |  | IC50 [3]: 0.06 µM |
| N#CC1=C(N)Oc2c(oc(CO)cc2=O)C1c1ccc(OCc2ccc(Cl)cc2)cc1 (centres unmarked) [6c, 2-Amino-4-(4-((4-chlorobenzyl)oxy)phenyl)-6-(hydroxymethyl)-8-oxo-4,8-dihydropyrano[3,2-b]pyran-3-carbonitrile] | 50.01 ± 4.34% | 236 to 239 °C | IC50 [1]: 79.2 ± 3.3 µM; % Inhibition at 30 µM [1]: 44.09 ± 2.94% |
| N#CC1=C(N)Oc2c(oc(CO)cc2=O)C1c1cccc(OCc2ccc(F)cc2)c1 (centres unmarked) [6g, 2-Amino-4-(3-((4-fluorobenzyl)oxy)phenyl)-6-(hydroxymethyl)-8-oxo-4,8-dihydropyrano[3,2-b]pyran-3-carbonitrile] | 88.63 ± 6.36% | 239 to 242 °C | IC50 [1]: 9.72 ± 2.47 µM; % Inhibition at 30 µM [1]: 77.95 ± 4.54% |
| N#CC1=C(N)Oc2c(oc(CO)cc2=O)C1c1ccc(OCc2ccccc2)cc1 (centres unmarked) [6a, 2-Amino-4-(4-(benzyloxy)phenyl)-6-(hydroxymethyl)-8-oxo-4,8-dihydropyrano[3,2-b]pyran-3-carbonitrile] | 47.90 ± 3.90% | 221 to 224 °C | tyrosinase inhibitory activity (in words) [1]: inactive |
| N#CC1=C(N)Oc2c(oc(CO)cc2=O)C1c1cccc(OCc2ccc(Cl)cc2)c1 (centres unmarked) [6h, 2-Amino-4-(3-((4-chlorobenzyl)oxy)phenyl)-6-(hydroxymethyl)-8-oxo-4,8-dihydropyrano[3,2-b]pyran-3-carbonitrile] | 67.95 ± 4.54% | 232 to 236 °C | IC50 [1]: 10.7 ± 4.96 µM; % Inhibition at 30 µM [1]: 65.90 ± 5.09% |
| Cc1ccc(COc2ccc(C3C(C#N)=C(N)Oc4c3oc(CO)cc4=O)cc2)cc1 (centres unmarked) [6e, 2-Amino-6-(hydroxymethyl)-4-(4-((4-methylbenzyl)oxy)phenyl)-8-oxo-4,8-dihydropyrano[3,2-b]pyran-3-carbonitrile] | 48.63 ± 6.37% | 215 to 218 °C |  |
| COc1cc(C2C(C#N)=C(N)Oc3c2oc(CO)cc3=O)ccc1OCc1ccc(C)cc1 (centres unmarked) [6o, 2-Amino-6-(hydroxymethyl)-4-(3-methoxy-4-((4-methylbenzyl)oxy)phenyl)-8-oxo-4,8 dihydropyrano[3,2-b]pyran-3-carbonitrile] | 44.31 ± 4.18% |  |  |
| CC1(C)CC(=O)C2=C(C1)Oc1ncn3ncnc3c1C2c1ccccc1 (centres unmarked) [1f] |  |  | Inhibition percentage [3]: 78% |
| 2-Amino-4-(3-((para-tolyl)oxy)phenyl)-6-(hydroxymethyl)-8-oxo-4,8-dihydropyrano[3,2-b]pyran-3-carbonitrile [6j] | 20.45 ± 4.54% |  | tyrosinase inhibitory activity (in words) [1]: without any activity |
| COc1cc(C2C(C#N)=C(N)Oc3c2oc(CO)cc3=O)ccc1OCc1ccccc1 (centres unmarked) [6k, 2-Amino-4-(4-(benzyloxy)-3-methoxyphenyl)-6-(hydroxymethyl)-8-oxo-4,8 dihydropyrano[3,2-b]pyran-3-carbonitrile] | 10.25 ± 3.48% |  |  |
| N#CC1=C(N)Oc2c(oc(CO)cc2=O)C1c1cccc(OCc2ccccc2)c1 (centres unmarked) [6f, 2-Amino-4-(3-(benzyloxy)phenyl)-6-(hydroxymethyl)-8-oxo-4,8-dihydropyrano[3,2-b]pyran-3-carbonitrile] | 42.27 ± 2.72% | 235 to 238 °C | tyrosinase inhibitory activity (in words) [1]: no inhibitory activity |
| COc1cc(C2C(C#N)=C(N)Oc3c2oc(CO)cc3=O)ccc1OCc1ccc(Cl)cc1 (centres unmarked) [6m, 2-Amino-4-(4-((4-cholorobenzyl)oxy)-3-methoxyphenyl)-6-(hydroxymethyl)-8-oxo-4,8-dihydropyrano[3,2-b]pyran-3-carbonitrile] | 49.31 ± 6.12% |  |  |
| O=c1cc(CSc2nnc(-c3ccccc3)n2NCc2ccc(O)c(O)c2)occ1O [1d] |  |  | IC50 [3]: 1.35 µM |
| COc1cc(C2C(C#N)=C(N)Oc3c2oc(CO)cc3=O)ccc1OCc1ccc(Br)cc1 (centres unmarked) [6n, 2-Amino-4-(4-((4-boromobenzyl)oxy)-3-methoxyphenyl)-6-(hydroxymethyl)-8-oxo-4,8-dihydropyrano[3,2-b]pyran-3-carbonitrile] | 21.36 ± 3.63% |  |  |
| O=c1cc(/C=C/c2cc(=O)c(O)co2)occ1O [1c] |  |  | IC50 [3]: 30.6 µM |
